Experimental data published in patent US9975879B2, “Beta lactams as modulators of glutamate uptake and methods for use thereof” (Temple University of the Commonwealth System of Higher …, priority 2013, dated 2018).
Like-named read-outs stand apart in the source and are kept apart here.

What was measured:
GLT-1 [1] = conditions: cited from earlier work; for expression of GLT-1: SOD1 mouse model of ALS
GLT-1 [2] = conditions: 50 mg/kg daily IP, last 6 days of extinction training; cocaine self-administering rats; nucleus accumbens core, normalized to calnexin; FIG. 1
[3] = Nakagura et al. (2005); cited from earlier work
[4] = tested on: amyotrophic lateral sclerosis; conditions: 50 mg daily; after 15 months of treatment; cited from earlier work
GLT-1 [5] = conditions: Rothstein et al., 2005; Lee et al., 2008; cited from earlier work
[6] = rats; Sari et al., 2009; Knackstead et al., 2010; cited from earlier work
planarian = planarian model; Rawls et al., 2008; cited from earlier work
GLT-1 [7] = conditions: decreased by repeated cocaine administration; cited from earlier work
[8] = cited from earlier work
[9] = tested on: cysteine-glutamate exchanger; conditions: decreased by repeated cocaine administration; cited from earlier work

For `COc1ccc2c(c1)[nH]c1c(C)nccc12` [Harmine], the “expression of GLT-1” value (GLT-1 [1]) is listed as “increases GLT-1 expression”.

For `C[C@@H](O)[C@H]1C(=O)N[C@@H]1[C@@H](C)C(=O)N1CCN(C)CC1` [MC-100093], the GLT-1 expression (GLT-1 [2]) was “restored GLT-1 expression levels to normal”.

For `CC1CC=NN1C(=O)c1cccnc1` (stereo not shown) [MS-153], the “conditioned place preference induced by cocaine” value [3] is given as “inhibited the conditioned place preference induced by cocaine”.

For `Nc1nc2ccc(OC(F)(F)F)cc2s1` [Riluzole], the “increase in life expectancy” value [4] is given as 2-3 months.

For `CO/N=C(\C(=O)N[C@@H]1C(=O)N2C(C(=O)O)=C(CSc3nc(=O)c(=O)[nH]n3C)CS[C@H]12)c1csc(N)n1` [ceftriaxone], the GLT-1 expression (GLT-1 [5]) is given as “stimulator of GLT-1 expression”, the “relapse to cocaine seeking” value [6] is given as “prevents relapse to cocaine seeking” and the “expression of GLT-1” value (GLT-1 [1]) is given as “increases the expression of GLT-1”. The mean survival time (GLT-1 [1]; SOD1 mouse) was “increases the mean survival time”, the “abstinence withdrawal from cocaine” value (planarian) was “inhibits abstinence withdrawal from cocaine” and the GLT-1 levels (GLT-1 [7]) was “restores”. For the same compound, the “free, unbound cerebrospinal fluid/plasma ratio based on Cmax” value ([8]; Chadwick et al., 1983) was 2-13%, the “free, unbound cerebrospinal fluid/plasma ratio based on AUCs” value ([8]; Lutsar and Friedland, 2000) was 1% and the cysteine-glutamate exchanger levels [9] was “restores”.
